# Measured values published in patent US7544711B2, “Use of nitroderivatives in urinary incontinence” (Nicox S.A., priority 1996, dated 2009).
# Key:
# [1] = tested on: rat femoral artery strips; assay: Relaxing activity on vessel smooth muscle (phenylephrine-contracted femoral artery strips); assay type: cell-based; conditions: contractions induced by 3×10^−5 M phenylephrine
# Text: Male Wistar rats weighing 200 to 300 g were used. The method used is described by Zhou Q. et al. The inhibitory mechanism of nicorandil in isolated rat urinary bladder and femoral artery, European Journal of Pharmacology, 153-159, 1995. After sacrifing the rats by cervical displacement, the femoral arteries were isolated for the preparation of helicoidal strips about 1×15 mm in size, from which the endothelium was removed. The prepared strips were placed in baths for isolated organs containing Krebs liquid and subjected to a weight of 0.5 g. Tension variations during the test were isometrically measured by means of a pressure transducer connected to a polygraph. The inhibitory effect of a treatment with the test derivatives on contractions induced by 3×10^−5 M phenylephrine versus reference preparations having a potassium channel opening activity and/or NO donors was measured.
# [2] = tested on: normal urinary bladder of conscious dogs; assay: Cystometrogram, normal urinary bladder of conscious dogs; assay type: in vivo, dog; conditions: 4 hours following dosing, IC=interval between contractions
# Experimental: The cystometrogram of conscious dogs was determined in accordance with the method described by Howe B. B. et al., ZENECA ZD 6169: a NOVEL KATP Channel opener with in vivo selectivity for urinary bladder, Journal of Pharmacology and Experimental Therapeutics, 274, 884-890, 1995.
# Female Beagle dogs with urinary bladder catheterised through the urethra by operating in sterile conditions, were used. Catheters were connected to a perfusor which perfused into the urinary bladder a physiological solution and to a pressure transducer in order to measure intravesical pressure. After 15 minute stabilisation, a 30 ml bolus of physiological solution was perfused into the urinary bladder in order to measure increased intravesical pressure and a series of smaller boluses were then perfused until spontaneous contractions were observed. After a period of contraction stabilisation, contracting activity was monitored for 60 minutes. The animals were then treated orally with the test products and urination frequency was then measured during 4 hours following dosing in […].
# [3] = tested on: hypertrophic urinary bladder strips; assay: Electrically induced contraction of urinary bladder strips, rats with vesical hypertrophy; assay type: cell-based, rat; conditions: 10^−6 M; hypertrophic tissue; 1/7 Hz electrical stimulation
# Text: (§1) The vesical hypertrophy model secondary to urethral obstruction in rats described by Malmgren A. et al.: Cystometrical evaluation of bladder instability in rats with intravesical outflow obstruction, The Journal of Urology, 1987, 137, 1291-1294, was used in order to evaluate the effect of the drugs on hyperactive vesical muscle.
# (§2) Male Sprague Dawley rats weighing about 250 g were used. In order to obtain partial urethral obstruction, the rats were anaesthetised with Nembutal and the urinary bladder and urethra were exposed by abdominal incision. A ligature was made around the urethra in the presence of an intraluminal cannula with 1 mm diameter. After suturing the abdominal wall the animals were stabulated for 6 weeks in order for vesical hypertrophy to start.
# (§3) The in vitro experiments were conducted with the parallel use of strips obtained from normal rats and rats with vesical hypertrophy.
# (§4) The in vitro urinary bladder strips were prepared as described above and the inhibition induced by the drugs on contraction induced by 1/7 Hz electrical stimulation lasting 1 msec., an above maximal voltage, produced by two platinum electrodes, was measured.
# isolated rat detrusor = assay: Contraction inhibiting activity in isolated rat detrusor (40 mM KCl); assay type: cell-based
# Experimental: Male Wistar rats weighing 200 to 300 g were used. The method used is described by Zhou Q. et al. (1995) (see Example 13). After sacrificing the rats by cervical displacement the urinary bladder was isolated and horizontal strips of detrusor muscle about 2 mm wide and about 5 mm long were obtained from the median region. The strips were placed in baths for isolated organs containing Krebs liquid and subjected to a 1 g tension. Tension variations during the test were measured isometrically by using a pressure transducer connected to a polygraph. The inhibitory effect of a pre-treatment with the test derivatives on contraction induced by 40 mM KCl was determined versus drugs having an opening potassium channel activity (cromakalin, nicorandil) nitroderivatives (nitroglycerin, nicorandil) and anti-inflammatories (indomethacin, naproxen, nimesulide).
# [4] = tested on: normal urinary bladder strips; assay: Electrically induced contraction of urinary bladder strips, normal rats; assay type: cell-based, rat; conditions: 10^−6 M; normal tissue; 1/7 Hz electrical stimulation
# Text: as §1, §2, §3, §4
# [5] = tested on: pig urethral smooth muscle; assay: Relaxing effect in pig urethral smooth muscle; assay type: cell-based; conditions: 10^−5 M; for Relaxation % 1: first treatment; for Relaxation % 1 / Relaxation % 2: 100% = highest relaxation in medium without Ca++; for Relaxation % 2: second consecutive treatment; for relaxing activity and tachyphylaxis (in words): two consecutive treatments
# Experimental: Samples of urethra were removed from female pigs about 6 months old.
# The urethra was opened longitudinally and samples of smooth muscle about 1×2×6 mm in size were removed from an area about 4 mm below ureteral orifices. The samples of smooth muscle were placed in baths for isolated organs, incubated at 37° C. and subjected to a 10 mN tension and connected to a force transducer for measuring mechanical activity. After a period of balancing of about 60 minutes, the prepared samples were exposed to Krebs solution without Ca++ to determine the highest relaxation level. Normal tone was then restored by adding Krebs solution. The relaxation effects of the test derivatives were then measured. The test wasa repeated two consecutive times for each prepared sample in order to evaluate any tachyphylaxis effects.
# [6] = tested on: normal urinary bladder of conscious rats; assay: Cystometrogram, normal urinary bladder of conscious rats; assay type: in vivo, rat; conditions: 5 mg/kg oral, 4 hours after dosing, IC=interval between contractions
# Experimental: Cystometrograms of conscious rats were determined according to the method described by Howe B. B et al. (1995) (see Example 9).
# Male Wistar rats weighing about 500 g were used. The rats were anaesthetised with Nembutal. After opening their abdomen and exposing their urinary bladder, a catheter filled with physiological solution was implanted in the urinary bladder and caused to emerge from the back of the animals. The abdominal muscle and skin were then sutured. 48 hours after surgery the animals were placed in metabolic cages and the catheters were connected to a perfusor which perfused 0.18 ml/min of a physiological solution into the urinary bladder, and to a pressure transducer in order to measure intravesical pressure. After stabilisation for 60 minutes, the animals were orally treated with the test products and urination frequency was than measured during 4 hours after dosing.
# nitroxy-sinthetase = biological target: T1, nitroxy-sinthetase (Rattus norvegicus, UniProt Q06518); assay: LPS-induced nitroxysynthetase activity in rat neutrofils after i.p. dosing; assay type: in vivo; conditions: 10 mg/kg i.p.; LPS 5 mg/kg i.v.; rat neutrofils four hours later; compared to the group treated with the vehicle alone
# T1 construct: Blood was collected for neutrofil isolation; from tissue; host or cells: neutrophils isolated from blood of LPS-treated Wistar rats
# Experimental: The nitroxy-sinthetase inhibiting activity induced by lipopolisaccharide (LPS) was determined in rat neutrofils after administration of any of the test compounds and compared with that obtained after treatment with the suspending vehicle alone (0.5% carboxymethyl cellulose, 5 ml/kg) and a product used as comparison. Briefly, Wistar rats fasted for 24 hours before treatment received one of the test compounds (10 mg/kg) intraperitoneally or the vehicle LPS (5 mg/kg) intravenously (caudal vein).
# Four hours later the animals were sacrified. Blood was collected for neutrofil isolation.
# The enzymatic activity was determined according to the od described by Assreuy J. et al. Feedback inhibition of nitric oxide sinthase activity by nitric oxide, British Journal of Pharmacology, […], 1993.
# [7] = tested on: gastroenteric tract of rats; assay: In vivo gastrointestinal safety study; design: species or system rat
# Text: Forty Sprague Dawley rats weighing about 300 g were randomly divided into 4 groups and orally treated twice a day for 4 days according to the following experimental scheme:
# Eighteen hours after the last treatment the rats were sacrified to determine any gastrointestinal damage.
# [8] = tested on: normal urinary bladders of anaesthetised rats; assay: Urinary bladder voiding reflex in anaesthetised rats; assay type: in vivo, rat; conditions: 18 hours after last treatment, controls = 100
# Experimental: 40 Sprague Dawley rats weighing about 300 g were randomly divided into 4 groups and orally treated twice a day for 4 days according to the following experimental scheme: 18 hours after the last treatment, the effects on the urinary bladder voiding reflex were evaluated using the method described by Maggi C. A. et al., Prostanoids modulate reflex micturition by acting through capsaicin-sensitive afferents, European Journal of Pharmacology, 105-112, 1988. The animals were anaesthetised with urethane, the urinary bladder was prepared for intraluminal pressure measurement. After a stabilisation period with an empty urinary bladder, this was progressively filled with a physiological solution by slow infusion (0.046 ml/min). A contraction of the urinary bladder was observed upon reflex triggering. The volume of physiological solution and intraluminal pressure required to evoke the reflex (volume and pressure thresholds) were measured. […] All tested products increased this threshold and can, therefore, be considered useful in case of detrusor instability.
# [9] = Rattus norvegicus, 10^−4 M, contraction induced by 40 mM KCl
# [10] = 3 mg/kg oral twice a day for 4 days, rats
# [11] = 3 mg/kg oral twice a day for 4 days
# [12] = 5 mg/kg oral twice a day for 4 days
structure (smiles),measurement,setting,value
CC1(C)Oc2ccc(C#N)cc2C(N2CCCC2=O)C1O (centres unmarked) [Cromakalim],inhibition at 0.3 µM,"[1]; Rattus norvegicus, 3 × 10^−7 M",54.1%
same,IC treated/IC baseline,[2]; 0.5 mg/kg oral,1.48
same,Contraction %,[3],35.7%
same,inhibition at 1 µM,"isolated rat detrusor; Rattus norvegicus, 10^−6 M, contraction induced by 40 mM KCl",33.3%
same,Contraction %,[4],50.5%
"O=C(O)c1ccccc1Nc1cccc(C(F)(F)F)c1 [Flufenamic acid, 2-[[3-(trifluoromethyl)phenyl]-amino]benzoic acid]",Relaxation % 1,[5],12.2%
same,Relaxation % 2,[5],13.2%
same,relaxing activity and tachyphylaxis (in words),[5],has itself a myorelaxing activity
same,IC treated/IC baseline,[6],1.42
same,NITROXY-SYNTHETASE ACTIVITY,nitroxy-sinthetase,98 percentage
same,IC treated/IC baseline,[2]; 3 mg/kg oral,1.42
COc1ccc2c(c1)c(CC(=O)O)c(C)n2C(=O)c1ccc(Cl)cc1 [Indomethacin],Relaxation % 1,[5],1.0%
same,Relaxation % 2,[5],1.2%
same,relaxing activity and tachyphylaxis (in words),[5],practically inactive
same,IC treated/IC baseline,[6],1.34
same,IC treated/IC baseline,[2]; 3 mg/kg oral,1.25
same,Contraction %,[3],76.3%
same,inhibition at 100 µM,isolated rat detrusor; [9],38.5%
same,Contraction %,[4],78.2%
same,animals with diffuse adherences,[7]; [10],3/10
same,animals with ulceration also in the intestines,[7]; [10],7/19
same,gastrointestinal damage (in words),[7]; [10],ulceration was observed in the stomachs
same,Pressure threshold (%),[8]; [11],190%
same,Volume threshold (%),[8]; [11],198%
N=C(N)NCCC[C@H](N)C(=O)O [L-arginine],Relaxation % 1,[5],22.7%
same,Relaxation % 2,[5],12.2%
same,relaxing activity and tachyphylaxis (in words),[5],active but induced tachyphylaxis
O=C(Oc1cccc(CO[N+](=O)[O-])c1)c1ccccc1Nc1cccc(C(F)(F)F)c1 [NO-F],Relaxation % 1,[5],45.8%
same,Relaxation % 2,[5],52.1%
same,IC treated/IC baseline,[6],1.62
same,NITROXY-SYNTHETASE ACTIVITY,nitroxy-sinthetase,63 percentage
same,IC treated/IC baseline,[2]; 3 mg/kg oral,1.76
same,gastrointestinal damage (in words),"[7]; 5 mg/kg oral twice a day for 4 days, group of 10 rats",one animal with a gastric ulcer and an animal with a duodenal ulcer
same,Pressure threshold (%),[8]; [12],203%
same,Volume threshold (%),[8]; [12],205%
COc1ccc2c(c1)c(CC(=O)Oc1cccc(CO[N+](=O)[O-])c1)c(C)n2C(=O)c1ccc(Cl)cc1 [NO-I],Relaxation % 1,[5],39.3%
same,Relaxation % 2,[5],37.2%
same,inhibition at 100 µM,"[1]; Rattus norvegicus, 10^−4 M",22.2%
same,IC treated/IC baseline,[6],1.48
same,IC treated/IC baseline,[2]; 3 mg/kg oral,1.43
same,Contraction %,[3],40.3%
same,inhibition at 100 µM,isolated rat detrusor; [9],46.3%
same,Contraction %,[4],61.5%
same,animals with gastric ulcers,"[7]; 3 mg/kg oral twice a day for 4 days, group of 10 rats",1
same,Pressure threshold (%),[8]; [11],223%
same,Volume threshold (%),[8]; [11],226%
"CS(=O)(=O)N(C(=O)CCCCCO[N+](=O)[O-])c1ccc([N+](=O)[O-])cc1Oc1ccccc1 [NO-M, N-[(2-PHENOXY-4-NITRO)PHENYL]-N-(6-NITROXY)HEXANOYLMETHANE-SULPHONAMIDE]",Inhibition %,[1]; 10^−4 M,19.5%
same,Inhibition %,"isolated rat detrusor; 10^−4 M, contraction induced by 40 mM KCl",48.1%
COc1ccc2cc([C@H](C)C(=O)O)ccc2c1 [Naproxen],inhibition at 100 µM,"isolated rat detrusor; Rattus norvegicus, 5 · 10^−4 M, contraction induced by 40 mM KCl",15.2%
O=C(NCCO[N+](=O)[O-])c1cccnc1 [Nicorandil],inhibition at 1 µM,"[1]; Rattus norvegicus, 10^−6 M",32.6%
same,inhibition at 100 µM,isolated rat detrusor; [9],26.4%
CS(=O)(=O)Nc1ccc([N+](=O)[O-])cc1Oc1ccccc1 [Nimesulide],inhibition at 100 µM,isolated rat detrusor; [9],41.8%
O=[N+]([O-])OCC(CO[N+](=O)[O-])O[N+](=O)[O-] [Nitroglycerin],Relaxation % 1,[5],32.1%
same,Relaxation % 2,[5],7.3%
same,relaxing activity and tachyphylaxis (in words),[5],active but induced tachyphylaxis
same,inhibition at 10 µM,isolated rat detrusor; Rattus norvegicus,28.7%
